According to publication PMC7618453, “Calcium Competitive Inhibition of Langerin by Thiazolopyrimidinones” (Journal of Medicinal Chemistry, 2025):

Tests used:
murine langerin CRD [1] = molecular target: T1, murine langerin CRD (Mus musculus, UniProt Q8VBX4); test: ITC titration of inhibitors into murine langerin CRD; assay type: binding; settings: for Kd: ITC, 278.15 K; for Ligand efficiency (LE): based on the best affinities from both conditions (Ca2+ present/absent), Gibbs free energy / number of non-hydrogen atoms
T1 construct: Murine langerin CRD (amino acids: 191–331) was cloned; made in house; host or cells: E. coli BL21
T1 sequence (Q8VBX4 191-331): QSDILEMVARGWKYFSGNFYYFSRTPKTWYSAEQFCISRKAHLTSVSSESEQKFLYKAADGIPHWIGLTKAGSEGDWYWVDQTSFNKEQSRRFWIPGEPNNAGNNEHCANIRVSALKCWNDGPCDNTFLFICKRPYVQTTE
Method: Isothermal titration calorimetry experiments were performed using a PEAQ-ITC from Malvern or a Nano ITC from TA Instruments at 278.15 K. Langerin CRD in 25 mM MES/NaOH pH = 6.0 with 40 mM NaCl was injected in the sample cell (total volume 170–300 μL, receptor concentration 80–100 μM) of the device. The titrant was dissolved in the same buffer as the protein and added in 20 steps of 2.5 μL (first injection, 1.2 μL; total volume, 50 μL) while stirring at 350 rpm. The differential heat of each injection was measured and plotted against the molar ratio. All thermograms were integrated using NITPIC, the titration curves were fitted using SEDPHAT with error estimates using the confidence interval, and all figures were made in GUSSI.
For Ca^2+ titration, calcium chloride solutions were prepared in 25 mM MES/NaOH, 40 mM NaCl in the syringe. Langerin CRD was dialyzed against 25 mM MES/NaOH, 40 mM NaCl with 10 mM EDTA, and subsequently 25 mM MES/NaOH, 40 mM NaCl, to remove Ca^2+ before loading into the sample cell. The thermogram of Ca^2+ titration was fitted with the One-Site (independent) model. In the Ca^2+ present titration set up, the protein was in 25 mM MES/NaOH, 40 mM NaCl with 5 mM calcium chloride, and 5% DMSO in the sample cell. The ligand concentration was set to 0.1–2 mM, depending on the solubility, and dissolved in the same buffer as the protein. The raw data were fitted using either the One-Site (independent) model or the Competitive Binding model. Affinity and enthalpy data of Ca^2+ binding to langerin were extracted from the Ca^2+ titration and applied in the Competitive Binding model subsequently. In the Ca^2+ absent titration set up: ligand concentration was set to 0.1–2 mM, receptor concentration was set to 80–100 μM, both dissolved in 25 mM MES/NaOH, 40 mM NaCl with 5%DMSO. The thermogram was fitted with the one-site (independent) model.
Isothermal Titration Calorimetry (ITC)
The raw ITC data were initially processed using the default software provided by respective ITC instrument: MicroCal PEAQ-ITC Analysis Software 1.41 and Nanoanalyze Data Analysis 3.5.0. For MicroCal, the fitting model was set to One Set of Sites, with the following parameters: baseline option (time factor 5, points per injection 25), control parameter set to Fitted Offset, site value fixed at 1 and other parameters set to vary. For Nanoanalyze, blank titration files were used for area correction, fitting model set to independent, binding site n fixed at 1, and other parameters allowed to vary.
The raw data from both systems were further processed using NITPIC 2.1.0, baseline type set to Best Fit, with pre- and post-injection tail correction applied, integral significance level was adjusted based on the quality of each titration, and the outlier threshold was defined as twice of the standard deviation. The processed data were then analyzed in SEDPHAT 15.2b. For Ca2+ titration and ligand titration in the absence of Ca2+, the fitting model was set as Hetero Association A-B (Single-site model) with the global parameter log(Ka) and dHAB set as vary. For ligand titration in the presence of Ca2+, the fitting model was set as Competing B and C for A (Competitive binding model) with the global parameter log(KAC) and dHAC set as the data obtained from Ca2+ titration (4.336 and -8.2 kcal/mol), and log(KAB) and dHAB as vary. Experimental parameters for titration were defined as Titrating B into AC. Final presentation of the […]

murine langerin CRD [2] = molecular target: T1, murine langerin CRD; test: 43Ca NMR assay of Ca2+ binding to langerin in the presence of inhibitors; parameters: Chemical shift δ (Table S1, 43Ca NMR) / Linewidth ∆ν (Table S1, 43Ca NMR): unit not given here; settings: Ca2+ + langerin + 400 μM inhibitor, pH 6.0; for Chemical shift δ (Table S1, 43Ca NMR): free 0.175, langerin-bound 0.116; for Linewidth ∆ν (Table S1, 43Ca NMR): free 0.89, langerin only 1.94; for Integral (relative to the ligand present free state) (Table S1, 43Ca NMR): free 1, langerin only 0.147
Method: ^43Ca NMR samples contain 50 μM langerin CRD in 25 mM MES/NaOH and 40 mM NaCl, pH 6.0, with 2.5 mM ^43CaCl2 (elemental calcium enriched to 57.9%, prepared from CaCO3 by hydrolysis with conc. HClaq followed by drying under vacuum; repeated three times), 400 μM compound, and 10% D2O. The negative controls contain the same components except for the protein. The positive control has 5 mM EDTA for fully chelating 2.5 mM Ca^2+ in 25 mM MES/NaOH and 40 mM NaCl. A spectrum width between 50 and −50 ppm was chosen. NMR spectra were measured at 25 °C on a 500 MHz Bruker NEO spectrometer equipped with a BBO probe. The carrier frequency was set to 0 ppm, and spectra were recorded with a recovery delay of […] and 1024 scans. All experiments were carried out with constant concentrations, volumes, receiver gains, and numbers of averaged FIDs.
Data processing and visualization were performed using TopSpin 4.4.0 (Bruker BioSpin GmbH, Rheinstetten, Germany) and MestReNova 10.0 (Mestrelab Research, Santiago de Compostela, Spain). Spectra were processed using an exponential window function with 1.00 Hz, zero-filled to a final size of 32,768 points (from an original FID size of 3,424), and baseline-corrected using spline. Parameter extraction was performed on data fitted without a window function to ensure an unbiased representation of the spectral features. […]

murine langerin = settings: in the presence of Ca^2+; previously reported, previous screening campaign (reference number not given); read-out: previously reported affinities; cited from earlier work
[3] = Solubility assessment using 1H NMR; assay type: physicochemical; settings: DSS reference, titrated from DMSO stock into protein buffer
Method: The compounds were dissolved in 100 mM DMSO and titrated into the same buffer solution where the protein was stored for different essays. DSS was used as the reference with a concentration of 100 µM. The integration and chemical shift of the ligand signals were monitored as indicators of potential aggregation. The solubility of compounds 1, 2, 3 were reported elsewhere. 1
Figure S1. Solubility assessment of compound 3 and 5 using 1H NMR. Compound […]
with the expected ratio relative to DSS, indicating its solubility at 1 mM in aqueous […]
(1 picture or pasted object on this page, not shown here)

murine langerin CRD [4] = molecular target: T1, murine langerin CRD; test: 19F R2-filtered NMR assay with carbohydrate reporter ManNAcF3; assay type: binding; settings: 25 mM MES/NaOH, 40 mM NaCl, 5 mM CaCl2, pH 6.0; 50 μM protein; read-out: K D of the carbohydrate reporter
Method: ^19F-NMR and ^19F-R2-filtered NMR experiments were conducted on a Bruker UltraShield 500 MHz spectrometer at 298 K. Spectra were processed in MestReNova 12.0, and data analysis was performed with GraphPad Prism version 10.2.0 for Windows (GraphPad Software, Boston, Massachusetts, USA, www.graphpad.com). Relaxation rates R 2,obs were determined with the CPMG pulse sequence, eq shown below. T represents the relaxation time, and I 0 is the integral at a T value of 0 s. The relaxation delay d 1 was set to 2.0 s, the acquisition time t acq was set to 0.87 s, and the frequency of 180° pulses νCPMG was set to 500 Hz. I=I0e^−R2,obsT 2
The KD value of the reporter was determined in a titration experiment at five concentrations [L]T with 50 μM protein. Samples were prepared via serial dilution. The K D and the R 2,b value of the reporter molecule were derived from eq by detection of the ^19F NMR relaxation rate R 2,obs in a two-parameter fit. R 2,b represents the relaxation rate in the bound state of the ligand, and p b is the bound fraction of the ligand, while [P]T represents the concentration of the receptor. The relaxation rate of the free ligand R 2,f was measured at 0.1 mM in the absence of the receptor. […]
Due to the complex equilibrium and competition effects present in the competitive binding experiments, EC50 values were utilized to quantify the inhibition degree. […]

langerin = settings: previous results using more elaborate structures from this series (reference number not given); cited from earlier work
[5] = Ca2+-depleted protein, 25 mM MES/NaOH pH 6.0, 40 mM NaCl, 5% DMSO, read-out: K D [single-site model] (A + B ↔ AB), Ca^2+ absent
[6] = 5 mM CaCl2, 25 mM MES/NaOH pH 6.0, 40 mM NaCl, 5% DMSO, mean ± standard error of fit, read-out: K D [single-site model] (A + B↔AB), Ca^2+ present
[7] = 5 mM CaCl2, pH 6.0, 5% DMSO, competition between inhibitor and Ca2+ assumed, read-out: K D [competitive binding model] (A + B + C ↔ AB + C ↔ AC + B), Ca^2+ present

| Kd (murine langerin CRD [1]; [5]) [µM] | Ligand efficiency (LE) (murine langerin CRD [1]) [kcal·mol^–1·HA^–1] | Chemical shift δ (Table S1, 43Ca NMR) (murine langerin CRD [2]) | Linewidth ∆ν (Table S1, 43Ca NMR) (murine langerin CRD [2]) | Integral (relative to the ligand present free state) (Table S1, 43Ca NMR) (murine langerin CRD [2]) | Kd (murine langerin CRD [1]; [6]) [µM] | Kd (murine langerin CRD [1]; [7]) [µM] | solubility ([3]; aqueous protein storage buffer, aqueous buffer, kinetic from dmso stock) [µM] | Solubility in aqueous buffer [3] | Kd (murine langerin CRD [4]) [µM] | Compound | Kd (murine langerin) [µM] | Competition with Ca^2+ (langerin) |
| --- | --- | --- | --- | --- | --- | --- | --- | --- | --- | --- | --- | --- |
| 1100 ± 300 | 0.31 | 0.173 | 2.80 | 0.355 |  |  |  |  |  | O=C(O)c1cnc2sccn2c1=O [Compound 1] | 700 |  |
| 19 ± 2 | 0.46 | 0.154 | 1.79 | 0.324 | 400 ± 70 | 81 ± 12 |  |  |  | Cc1csc2ncc(C(=O)O)c(=O)n12 [Compound 2] | 1200 |  |
| 53 ± 8 | 0.44 | 0.139 | 1.78 | 0.344 | 150 ± 40 | 17 ± 4 | ≥ 1000 |  |  | Cc1sc2ncc(C(=O)O)c(=O)n2c1C [Compound 3] | 900 |  |
| 200 ± 90 | 0.27 | 0.174 | 1.64 | 0.316 | 8500 ± 2000 | 480 ± 70 |  |  |  | NCCNC(=O)c1cnc2ccccn2c1=O [Compound 4, N-(2-Aminoethyl)-4-oxo-4H-pyrido[1,2-a]pyrimidine-3-carboxamide] |  |  |
|  |  |  |  |  |  |  |  | partial solubility |  | O=C(O)c1cnc2ccccn2c1=O [Compound 5, 4-oxo-4H-pyrido[1,2-a]pyrimidine-3-carboxylic acid] |  |  |
|  |  |  |  |  |  |  |  |  | 28000 ± 5000 | C#CCO[C@H]1O[C@H](CO)[C@@H](O)[C@H](O)[C@@H]1NC(=O)C(F)(F)F [ManNAcF3] |  |  |
|  |  |  |  |  |  |  |  |  |  | O=C(NCCc1cn2c(n1)SCC2)c1cnc2sccn2c1=O [N-(2-(2,3-dihydroimidazo[2,1-b]-thiazol-6-yl)-ethyl)-5-oxo-5H-thiazolo[3,2-a]-pyrimidine-6-carboxamide] |  | did not show competition with Ca^2+ |
